Columns and labels:
DNA gyrase subunit A [1] = target: DNA gyrase subunit A (Escherichia coli K-12, UniProt P0AES4); test: Inhibition of Escherichia coli ATCC 25922 DNA gyrase A assessed as reduction in enzyme-mediated supercoiling of relaxed pBR322 DNA by ethidium bromide staining based gel electrophoresis method
DNA gyrase subunit A [2] = target: DNA gyrase subunit A (Staphylococcus aureus, UniProt P20831); test: Inhibition of Staphylococcus aureus ATCC 29213 DNA gyrase A assessed as reduction in enzyme-mediated supercoiling of relaxed pBR322 DNA by ethidium bromide staining based gel electrophoresis method
[3] = target: DNA topoisomerase 4 subunit A (Staphylococcus aureus, UniProt P0C1U9); test: Inhibition of Staphylococcus aureus ATCC 29213 DNA topoisomerase 4 subunit ParC assessed as reduction in decatenation of kinetoplast DNA incubated for 30 mins by ethidium bromide staining based gel electrophoresis method
[4] = target: T1, DNA topoisomerase 4 subunit A (Escherichia coli K-12, UniProt P0AFI2); test: Inhibition of Escherichia coli ATCC 25922 DNA topoisomerase 4 subunit ParC assessed as reduction in decatenation of kinetoplast DNA incubated for 30 mins by ethidium bromide staining based gel electrophoresis method
T1 sequence (P0AFI2 whole entry): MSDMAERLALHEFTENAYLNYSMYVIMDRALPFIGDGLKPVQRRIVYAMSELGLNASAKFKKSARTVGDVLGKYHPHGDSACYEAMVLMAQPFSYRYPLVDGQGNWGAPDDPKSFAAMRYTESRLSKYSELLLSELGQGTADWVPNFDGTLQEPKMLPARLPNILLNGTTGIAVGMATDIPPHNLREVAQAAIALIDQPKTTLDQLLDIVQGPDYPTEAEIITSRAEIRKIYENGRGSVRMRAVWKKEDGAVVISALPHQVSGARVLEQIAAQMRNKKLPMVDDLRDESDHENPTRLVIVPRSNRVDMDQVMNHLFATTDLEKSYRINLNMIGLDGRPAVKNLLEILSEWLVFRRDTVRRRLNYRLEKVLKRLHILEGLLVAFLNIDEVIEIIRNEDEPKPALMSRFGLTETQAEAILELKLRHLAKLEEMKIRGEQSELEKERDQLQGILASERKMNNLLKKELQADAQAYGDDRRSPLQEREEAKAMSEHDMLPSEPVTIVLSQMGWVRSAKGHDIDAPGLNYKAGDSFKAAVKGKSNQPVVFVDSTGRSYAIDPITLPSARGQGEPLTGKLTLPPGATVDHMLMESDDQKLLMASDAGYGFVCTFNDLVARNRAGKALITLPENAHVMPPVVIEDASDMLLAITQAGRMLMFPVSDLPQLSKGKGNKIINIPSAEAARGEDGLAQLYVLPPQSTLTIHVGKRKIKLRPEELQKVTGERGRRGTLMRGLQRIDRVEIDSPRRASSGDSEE

Chain of DNA gyrase subunit A (Escherichia coli K-12, UniProt P0AES4) (P0AES4 whole entry): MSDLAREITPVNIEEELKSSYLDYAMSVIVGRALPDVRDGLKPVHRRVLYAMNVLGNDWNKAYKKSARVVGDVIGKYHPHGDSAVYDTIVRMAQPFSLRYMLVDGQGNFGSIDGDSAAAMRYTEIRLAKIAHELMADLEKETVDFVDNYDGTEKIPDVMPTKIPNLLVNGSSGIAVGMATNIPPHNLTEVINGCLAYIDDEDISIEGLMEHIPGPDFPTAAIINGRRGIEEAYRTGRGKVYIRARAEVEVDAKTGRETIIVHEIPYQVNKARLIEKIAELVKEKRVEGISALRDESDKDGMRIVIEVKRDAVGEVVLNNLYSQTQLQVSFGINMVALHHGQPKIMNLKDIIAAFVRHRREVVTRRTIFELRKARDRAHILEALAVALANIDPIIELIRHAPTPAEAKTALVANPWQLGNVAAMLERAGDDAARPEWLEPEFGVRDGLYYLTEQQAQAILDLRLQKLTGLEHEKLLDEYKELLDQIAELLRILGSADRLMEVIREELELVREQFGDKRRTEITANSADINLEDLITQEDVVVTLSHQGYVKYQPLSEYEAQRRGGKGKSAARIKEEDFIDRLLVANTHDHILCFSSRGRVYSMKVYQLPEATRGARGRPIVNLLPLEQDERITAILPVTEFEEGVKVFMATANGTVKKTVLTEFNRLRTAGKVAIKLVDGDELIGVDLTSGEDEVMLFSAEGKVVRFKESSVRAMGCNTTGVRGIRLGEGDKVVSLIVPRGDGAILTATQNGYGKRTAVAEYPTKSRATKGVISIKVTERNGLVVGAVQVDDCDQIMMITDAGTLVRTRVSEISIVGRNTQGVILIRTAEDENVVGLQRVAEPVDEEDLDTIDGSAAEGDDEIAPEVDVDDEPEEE
Chain of DNA topoisomerase 4 subunit A (Staphylococcus aureus, UniProt P0C1U9) (P0C1U9 whole entry): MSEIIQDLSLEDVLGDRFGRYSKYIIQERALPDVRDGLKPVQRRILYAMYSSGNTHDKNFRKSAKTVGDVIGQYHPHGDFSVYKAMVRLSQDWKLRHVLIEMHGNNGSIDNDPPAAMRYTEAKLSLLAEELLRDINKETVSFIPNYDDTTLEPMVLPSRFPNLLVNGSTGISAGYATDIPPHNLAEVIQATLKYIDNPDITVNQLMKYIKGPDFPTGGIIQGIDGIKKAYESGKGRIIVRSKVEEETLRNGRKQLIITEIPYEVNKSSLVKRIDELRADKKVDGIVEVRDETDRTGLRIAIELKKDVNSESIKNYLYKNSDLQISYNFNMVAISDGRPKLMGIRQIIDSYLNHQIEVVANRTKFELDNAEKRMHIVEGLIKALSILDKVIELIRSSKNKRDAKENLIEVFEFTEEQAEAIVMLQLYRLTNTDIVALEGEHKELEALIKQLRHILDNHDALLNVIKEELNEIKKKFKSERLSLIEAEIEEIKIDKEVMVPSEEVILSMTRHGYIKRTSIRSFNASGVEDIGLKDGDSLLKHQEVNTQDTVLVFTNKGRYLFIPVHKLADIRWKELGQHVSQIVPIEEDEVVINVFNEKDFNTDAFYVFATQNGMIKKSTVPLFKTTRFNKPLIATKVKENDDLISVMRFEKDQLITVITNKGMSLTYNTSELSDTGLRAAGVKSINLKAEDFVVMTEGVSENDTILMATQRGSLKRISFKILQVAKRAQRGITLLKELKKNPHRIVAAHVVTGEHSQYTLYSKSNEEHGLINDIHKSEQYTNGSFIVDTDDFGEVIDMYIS
Chain of DNA gyrase subunit A (Staphylococcus aureus, UniProt P20831) (P20831 whole entry): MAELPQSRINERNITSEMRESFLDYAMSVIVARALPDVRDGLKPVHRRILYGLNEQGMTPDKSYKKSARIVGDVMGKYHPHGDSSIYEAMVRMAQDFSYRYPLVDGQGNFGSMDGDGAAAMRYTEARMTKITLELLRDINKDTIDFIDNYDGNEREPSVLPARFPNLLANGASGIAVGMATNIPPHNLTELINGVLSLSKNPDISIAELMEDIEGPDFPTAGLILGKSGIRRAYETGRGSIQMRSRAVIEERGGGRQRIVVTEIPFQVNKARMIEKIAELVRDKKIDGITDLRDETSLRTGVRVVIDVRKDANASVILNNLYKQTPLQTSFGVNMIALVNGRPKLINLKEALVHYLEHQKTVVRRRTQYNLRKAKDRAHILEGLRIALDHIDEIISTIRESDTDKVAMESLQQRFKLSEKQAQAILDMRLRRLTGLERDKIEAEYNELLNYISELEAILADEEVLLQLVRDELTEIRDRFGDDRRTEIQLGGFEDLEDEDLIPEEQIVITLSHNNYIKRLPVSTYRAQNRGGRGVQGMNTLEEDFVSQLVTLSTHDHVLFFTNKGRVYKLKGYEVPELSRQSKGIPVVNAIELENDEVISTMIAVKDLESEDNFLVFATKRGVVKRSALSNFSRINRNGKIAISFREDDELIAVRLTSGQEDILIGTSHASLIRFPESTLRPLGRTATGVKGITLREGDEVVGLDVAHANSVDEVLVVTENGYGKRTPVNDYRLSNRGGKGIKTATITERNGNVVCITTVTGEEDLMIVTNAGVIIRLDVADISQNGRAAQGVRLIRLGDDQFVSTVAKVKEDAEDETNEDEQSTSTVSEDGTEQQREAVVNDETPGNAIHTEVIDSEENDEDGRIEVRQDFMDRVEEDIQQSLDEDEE

Cc1cc2ccccc2c(N2CCN(CCCNc3cc(=O)oc4ccccc34)CC2)n1
IC50 (DNA gyrase subunit A [1]): 4.8 µM
IC50 (DNA gyrase subunit A [2]): 33.1 µM
IC50 [3]: 7.5 µM

O=c1cc(NCCCN2CCN(c3nccc4ncccc34)CC2)c2ccccc2o1
IC50 (DNA gyrase subunit A [1]): 40.6 µM
IC50 [4]: 29.3 µM
IC50 (DNA gyrase subunit A [2]): 26.8 µM
IC50 [3]: 83.8 µM

O=c1cc(NC2CCN(CCCc3ccccc3)CC2)c2cc(Cl)ccc2o1
IC50 (DNA gyrase subunit A [1]): > 800 µM
IC50 [4]: 4.1 µM
IC50 (DNA gyrase subunit A [2]): 27.8 µM
IC50 [3]: 100 to 200 µM

N#Cc1cc2ccccc2c(N2CCN(CCCNc3cc(=O)oc4ccccc34)CC2)n1
IC50 (DNA gyrase subunit A [1]): 5.6 µM
IC50 [4]: 3.9 µM
IC50 (DNA gyrase subunit A [2]): 3.6 µM
IC50 [3]: > 100 µM

O=c1cc(NCCCN2CCN(c3nccc4ccccc34)CC2)c2c(o1)CCCC2
IC50 (DNA gyrase subunit A [1]): 7.6 µM
IC50 [4]: 7.8 µM
IC50 (DNA gyrase subunit A [2]): 3.7 µM
IC50 [3]: 52.8 µM

O=c1cc(NCCN2CCN(c3nccc4ccccc34)CC2)c2ccccc2o1
IC50 [4]: 6.7 µM
IC50 (DNA gyrase subunit A [2]): 6.9 µM
IC50 [3]: > 100 µM

O=c1cc(N[C@H]2C[C@H](N3CCN(c4nccc5ccccc45)CC3)C2)c2ccccc2o1
IC50 (DNA gyrase subunit A [1]): 2.1 µM
IC50 [4]: 2.6 µM
IC50 (DNA gyrase subunit A [2]): 5.6 µM
IC50 [3]: 11.6 µM

O=C(CCN1CCN(c2nccc3ccc(F)cc23)CC1)Nc1cc(=O)oc2ccccc12
IC50 (DNA gyrase subunit A [1]): 1.1 µM
IC50 [4]: 0.7 µM
IC50 (DNA gyrase subunit A [2]): 10.5 µM
IC50 [3]: 39.7 µM

O=c1cc(NCCCN2CCN(c3nccc4ccc(F)cc34)CC2)c2c(o1)CCNC2
IC50 (DNA gyrase subunit A [1]): 22.8 µM
IC50 [4]: 7.3 µM
IC50 (DNA gyrase subunit A [2]): 164 µM
IC50 [3]: > 100 µM

Cc1ccc2ccnc(N3CCN(CCCNc4cc(=O)oc5ccccc45)CC3)c2c1
IC50 (DNA gyrase subunit A [1]): 2.6 µM
IC50 [4]: 3.8 µM
IC50 (DNA gyrase subunit A [2]): 9.6 µM
IC50 [3]: 52 µM

O=c1cc(NCCCN2CCN(c3nccc4ccc(F)cc34)CC2)c2c(o1)CCSC2
IC50 (DNA gyrase subunit A [1]): 1.3 µM
IC50 [4]: 8 µM
IC50 (DNA gyrase subunit A [2]): 1.3 µM
IC50 [3]: 15 µM

CN(CCCN1CCN(c2nccc3ccccc23)CC1)c1cc(=O)oc2ccccc12
IC50 (DNA gyrase subunit A [1]): 31.7 µM
IC50 [4]: 22.9 µM
IC50 (DNA gyrase subunit A [2]): 12.1 µM
IC50 [3]: > 100 µM

O=c1cc(NCCCN2CCN(c3nccc4ccc(F)cc34)CC2)c2ccccc2o1
IC50 (DNA gyrase subunit A [1]): 0.8 µM
IC50 [4]: 1.7 µM
IC50 (DNA gyrase subunit A [2]): 2.8 µM
IC50 [3]: 11.8 µM

O=c1cc(NCCCN2CCN(c3nccc4ccc(F)cc34)CC2)c2c(o1)CCOC2
IC50 (DNA gyrase subunit A [1]): 6.3 µM
IC50 [4]: 59 µM
IC50 (DNA gyrase subunit A [2]): 19 µM
IC50 [3]: 4 µM

O=c1cc(NCCCN2CCN(c3nc(Cl)cc4ccccc34)CC2)c2ccccc2o1
IC50 (DNA gyrase subunit A [1]): 2.3 µM
IC50 [4]: 3.2 µM
IC50 (DNA gyrase subunit A [2]): 12.1 µM
IC50 [3]: 10.2 µM

O=C1CN(c2nccc3ccccc23)CCN1CCCNc1cc(=O)oc2ccccc12
IC50 (DNA gyrase subunit A [1]): 46.5 µM
IC50 [4]: 28.5 µM
IC50 (DNA gyrase subunit A [2]): > 100 µM
IC50 [3]: > 100 µM

O=c1cc(NCCCN2CCN(c3nccc4ccc(F)cc34)CC2)c2c(o1)CCS(=O)(=O)C2
IC50 (DNA gyrase subunit A [1]): 2.9 µM
IC50 [4]: 52.5 µM
IC50 (DNA gyrase subunit A [2]): 7.8 µM
IC50 [3]: 2.1 µM

O=c1cc(N[C@H]2C[C@@H](N3CCN(c4nccc5ccccc45)CC3)C2)c2ccccc2o1
IC50 (DNA gyrase subunit A [1]): 1.1 µM
IC50 [4]: 0.9 µM
IC50 (DNA gyrase subunit A [2]): 1.2 µM
IC50 [3]: > 100 µM

COc1cc2ccccc2c(N2CCN(CCCNc3cc(=O)oc4ccccc34)CC2)n1
IC50 (DNA gyrase subunit A [1]): 66 µM
IC50 [4]: 2.4 µM
IC50 (DNA gyrase subunit A [2]): 43.3 µM
IC50 [3]: 137 µM

Cc1cccc2oc(=O)cc(NCCCN3CCN(c4nccc5ccc(F)cc45)CC3)c12
IC50 (DNA gyrase subunit A [1]): 2.4 µM
IC50 [4]: 3.1 µM
IC50 (DNA gyrase subunit A [2]): 2.1 µM
IC50 [3]: > 100 µM

O=c1cc(OCCCN2CCN(c3nccc4ccccc34)CC2)c2ccccc2o1
IC50 (DNA gyrase subunit A [1]): 6.2 µM
IC50 [4]: 22.6 µM
IC50 (DNA gyrase subunit A [2]): 28.3 µM
IC50 [3]: > 100 µM

CN(C)c1ccc2ccnc(N3CCN(CCCNc4cc(=O)oc5ccccc45)CC3)c2c1
IC50 (DNA gyrase subunit A [1]): 5.6 µM
IC50 [4]: 8.8 µM
IC50 (DNA gyrase subunit A [2]): 4.6 µM
IC50 [3]: 11.2 µM

Cc1c(NCCCN2CCN(c3nccc4ccc(F)cc34)CC2)c2ccccc2oc1=O
IC50 (DNA gyrase subunit A [1]): 1.3 µM
IC50 [4]: 2.2 µM
IC50 (DNA gyrase subunit A [2]): 16.9 µM
IC50 [3]: > 100 µM

From ChEMBL document CHEMBL4373693, “Virtual Screening Approach and Investigation of Structure-Activity Relationships To Discover Novel Bacterial Topoisomerase Inhibitors Targeting Gram-Positive and Gram-Negative Pathogens” (J Med Chem, 2019)
